Measurements as given in patent publication US11986540B2, “Compositions including pafolacianine for the identification of malignant lesions” (ON TARGET LABORATORIES, LLC., priority 2022, dated 2024).
Where two headings read alike, the source gives them in different places.

Experiments:
tumor = test: Tumor to background ratios with different mass doses; assay type: in vivo, human; conditions: dose of 0.025 mg per 1 kg bodyweight
Source text: Tumor to background ratios were studied with different mass doses of pafolacianine.

[1] = Plasma protein binding, equilibrium dialysis, rat plasma; assay type: in vitro ADME; conditions: Sprague Dawley, read-out: mean (±SD) percentage of plasma protein bound (converted)
Description: (§1) The plasma protein binding of pafolacianine was studied in vitro in fresh human, Sprague Dawley rat, and Beagle dog plasma using equilibrium dialysis. Pafolacianine was introduced into plasma samples, in duplicate, resulting in a final concentration of 5 μM. The mean (±SD) percentage of plasma protein bound pafolacianine was 99.1±0.1%, 98.6±0.1%, and 93.7±1.5% for rat, dog and human, respectively. Pafolacianine was highly bound to plasma protein in all species examined.

[2] = Pharmacokinetics in specific populations; assay type: in vivo; conditions: age 18-89 years, weight 41.6-133.6 kg, mild to moderate renal or hepatic impairment
[3] = Repeat once-weekly IV dose toxicokinetics in rats; assay type: in vivo; conditions: for increase in AUCinf: after 14.9-fold increase in dose; for half-life / AUC(0-inf) / C0 / clearance / Vd: rat, in vivo; for Vd: read-out: Vss
Description: […] On both Day 1 and Day 13, increases in pafolacianine exposure (AUCinf) were trending slightly greater than dose proportional, noting that sparse blood sampling was employed so the variability in the AUCs could not be assessed. […] CL was slow (relative to hepatic blood flow) and Vss was moderate. Mean T1/2 ranged from approximately 6 to 11 hours.

[4] = Safety in three open label clinical studies; assay type: in vivo, human
Description: The safety of the disclosed compositions were evaluated in three open label clinical studies, two studies (N=150 and N=44) in patients with ovarian cancer and one study (N=100) in patients with cancer in the lung. A total of 294 patients received 0.025 mg/kg of the disclosed compositions via intravenous administration. The mean age of patients was 63.5 years; 51% were 65 years of age or older; 89% of patients were female; and 84% of patients were white.

[5] = Partitioning into red blood cells; assay type: in vitro ADME
[6] = Embryo-fetal development study in rabbits; assay type: in vivo
Description: Pafolacianine was intravenously administered at doses of, during the period of organogenesis namely, 0.015, 0.15, and 1.5 mg/kg/day from gestational day (GD) 6 to GD17 in rats (human equivalent doses (HEDs) of 0.002, 0.024 and 0.242 mg/kg/day) and 0.3, 1, and 3 mg/kg/day from GD7 to GD20 in rabbits (HEDs of 0.097, 0.323 and 0.968 mg/kg/day). […] No-Observed-Adverse-Effect-Levels were 1.5 mg/kg/day in rats and 3 mg/kg/day in rabbits.

plasma protein = test: Plasma protein binding, equilibrium dialysis, human plasma; assay type: in vitro ADME; conditions: human plasma, 5 μM
Description: as §1

[7] = as above; assay type: in vitro ADME; conditions: human, plasma
Description: as §1

[8] = female, iv, 3.1 mg/kg, rats F, 3.1 mg/kg once-weekly IV, Day 0
[9] = female, iv, 3.1 mg/kg, rats F, 3.1 mg/kg once-weekly IV, Day 13
[10] = female, iv, 30.8 mg/kg, rats F, 30.8 mg/kg once-weekly IV, Day 0
[11] = female, iv, 30.8 mg/kg, rats F, 30.8 mg/kg once-weekly IV, Day 13
[12] = female, iv, 46.3 mg/kg, rats F, 46.3 mg/kg once-weekly IV, Day 0
[13] = female, iv, 46.3 mg/kg, rats F, 46.3 mg/kg once-weekly IV, Day 13
[14] = male, iv, 3.1 mg/kg, rats M, 3.1 mg/kg once-weekly IV, Day 0
[15] = male, iv, 3.1 mg/kg, rats M, 3.1 mg/kg once-weekly IV, Day 13
[16] = male, iv, 30.8 mg/kg, rats M, 30.8 mg/kg once-weekly IV, Day 0
[17] = male, iv, 30.8 mg/kg, rats M, 30.8 mg/kg once-weekly IV, Day 13
[18] = male, iv, 46.3 mg/kg, rats M, 46.3 mg/kg once-weekly IV, Day 0
[19] = male, iv, 46.3 mg/kg, rats M, 46.3 mg/kg once-weekly IV, Day 13
[20] = rats F, 3.1 mg/kg once-weekly IV, Day 13
[21] = rats F, 30.8 mg/kg once-weekly IV, Day 13
[22] = rats F, 46.3 mg/kg once-weekly IV, Day 13
[23] = rats M, 3.1 mg/kg once-weekly IV, Day 13
[24] = rats M, 30.8 mg/kg once-weekly IV, Day 13
[25] = rats M, 46.3 mg/kg once-weekly IV, Day 13

**Q.** Which results are given for `CC1(C)C(=CC=C2CCCC(C=CC3=[N+](CCCCS(=O)(=O)[O-])c4ccc(S(=O)(=O)O)cc4C3(C)C)=C2Oc2ccc(CC(NC(=O)c3ccc(NCc4cnc5nc(N)[nH]c(=O)c5n4)cc3)C(=O)O)cc2)N(CCCCS(=O)(=O)O)c2ccc(S(=O)(=O)O)cc21` (centres unmarked) [pafolacianine]?
**A.** tumor to background ratio (tumor): High; fraction unbound at 5 μM [1]: 0.009; differences in pharmacokinetics by age, weight, renal or hepatic impairment [2]: No clinically significant differences; increase in AUCinf ([3]; Day 1, genders combined): ~18 fold; increase in AUCinf ([3]; Day 13, genders combined): ~20 fold; half-life ([3]; both sexes, intravenous, rats, all doses and days, read-out: Mean T1/2 range): 6 to 11 h; AUC(0-inf) [3, 8]: 19.1 µg·h/mL; C0 [3, 8]: 21.2 µg/mL; clearance [3, 8]: 2.72 mL/min/kg; half-life ([3]; female, iv, 3.1 mg/kg, rats F, 3.1 mg/kg once-weekly IV, Day 0, read-out: T1/2 (converted)): 7.18 h; Vd [3, 8]: 1.08 L/kg; AUC(0-inf) [3, 9]: 16.6 µg·h/mL; C0 [3, 9]: 4.76 µg/mL; clearance [3, 9]: 3.1 mL/min/kg; half-life ([3]; female, iv, 3.1 mg/kg, rats F, 3.1 mg/kg once-weekly IV, Day 13, read-out: T1/2 (converted)): 8.43 h; Vd [3, 9]: 1.7 L/kg; AUC(0-inf) [3, 10]: 237 µg·h/mL; C0 [3, 10]: 194 µg/mL; clearance [3, 10]: 2.17 mL/min/kg; half-life ([3]; female, iv, 30.8 mg/kg, rats F, 30.8 mg/kg once-weekly IV, Day 0, read-out: T1/2 (converted)): 8.69 h; Vd [3, 10]: 1.14 L/kg; AUC(0-inf) [3, 11]: 291 µg·h/mL; C0 [3, 11]: 105 µg/mL; clearance [3, 11]: 1.77 mL/min/kg; half-life ([3]; female, iv, 30.8 mg/kg, rats F, 30.8 mg/kg once-weekly IV, Day 13, read-out: T1/2 (converted)): 6.06 h; Vd [3, 11]: 0.773 L/kg; AUC(0-inf) [3, 12]: 361 µg·h/mL; C0 [3, 12]: 245 µg/mL; clearance [3, 12]: 2.13 mL/min/kg; half-life ([3]; female, iv, 46.3 mg/kg, rats F, 46.3 mg/kg once-weekly IV, Day 0, read-out: T1/2 (converted)): 9.76 h; Vd [3, 12]: 1.29 L/kg; AUC(0-inf) [3, 13]: 387 µg·h/mL; C0 [3, 13]: 240 µg/mL; clearance [3, 13]: 2 mL/min/kg; half-life ([3]; female, iv, 46.3 mg/kg, rats F, 46.3 mg/kg once-weekly IV, Day 13, read-out: T1/2 (converted)): 5.76 h; Vd [3, 13]: 0.806 L/kg; AUC(0-inf) [3, 14]: 19.2 µg·h/mL; C0 [3, 14]: 27.7 µg/mL; clearance [3, 14]: 2.68 mL/min/kg; half-life ([3]; male, iv, 3.1 mg/kg, rats M, 3.1 mg/kg once-weekly IV, Day 0, read-out: T1/2 (converted)): 8.25 h; Vd [3, 14]: 1.24 L/kg; AUC(0-inf) [3, 15]: 21 µg·h/mL; C0 [3, 15]: 24 µg/mL; clearance [3, 15]: 2.47 mL/min/kg; half-life ([3]; male, iv, 3.1 mg/kg, rats M, 3.1 mg/kg once-weekly IV, Day 13, read-out: T1/2 (converted)): 9.67 h; Vd [3, 15]: 1.5 L/kg; AUC(0-inf) [3, 16]: 235 µg·h/mL; C0 [3, 16]: 165 µg/mL; clearance [3, 16]: 2.18 mL/min/kg; half-life ([3]; male, iv, 30.8 mg/kg, rats M, 30.8 mg/kg once-weekly IV, Day 0, read-out: T1/2 (converted)): 10.9 h; Vd [3, 16]: 1.53 L/kg; AUC(0-inf) [3, 17]: 329 µg·h/mL; C0 [3, 17]: 202 µg/mL; clearance [3, 17]: 1.56 mL/min/kg; half-life ([3]; male, iv, 30.8 mg/kg, rats M, 30.8 mg/kg once-weekly IV, Day 13, read-out: T1/2 (converted)): 10.4 h; Vd [3, 17]: 1.15 L/kg; AUC(0-inf) [3, 18]: 342 µg·h/mL; C0 [3, 18]: 263 µg/mL; clearance [3, 18]: 2.27 mL/min/kg; half-life ([3]; male, iv, 46.3 mg/kg, rats M, 46.3 mg/kg once-weekly IV, Day 0, read-out: T1/2 (converted)): 7.99 h; Vd [3, 18]: 1.41 L/kg; AUC(0-inf) [3, 19]: 380 µg·h/mL; C0 [3, 19]: 269 µg/mL; clearance [3, 19]: 2.03 mL/min/kg; half-life ([3]; male, iv, 46.3 mg/kg, rats M, 46.3 mg/kg once-weekly IV, Day 13, read-out: T1/2 (converted)): 7.35 h; Vd [3, 19]: 1.12 L/kg; DN AUCinf ([3]; rats F, 3.1 mg/kg once-weekly IV, Day 0): 6.15 (μg · h/mL)/(mg/kg); Accumulation Ratio [3, 20]: 0.874; DN AUCinf [3, 20]: 5.37 (μg · h/mL)/(mg/kg); DN AUCinf ([3]; rats F, 30.8 mg/kg once-weekly IV, Day 0): 7.70 (μg · h/mL)/(mg/kg); Accumulation Ratio [3, 21]: 1.23; DN AUCinf [3, 21]: 9.45 (μg · h/mL)/(mg/kg); DN AUCinf ([3]; rats F, 46.3 mg/kg once-weekly IV, Day 0): 7.80 (μg · h/mL)/(mg/kg); Accumulation Ratio [3, 22]: 1.07; DN AUCinf [3, 22]: 8.35 (μg · h/mL)/(mg/kg); DN AUCinf ([3]; rats M, 3.1 mg/kg once-weekly IV, Day 0): 6.19 (μg · h/mL)/(mg/kg); Accumulation Ratio [3, 23]: 1.09; DN AUCinf [3, 23]: 6.76 (μg · h/mL)/(mg/kg); DN AUCinf ([3]; rats M, 30.8 mg/kg once-weekly IV, Day 0): 7.63 (μg · h/mL)/(mg/kg); Accumulation Ratio [3, 24]: 1.40; DN AUCinf [3, 24]: 10.7 (μg · h/mL)/(mg/kg); DN AUCinf ([3]; rats M, 46.3 mg/kg once-weekly IV, Day 0): 7.39 (μg · h/mL)/(mg/kg); Accumulation Ratio [3, 25]: 1.11; DN AUCinf [3, 25]: 8.20 (μg · h/mL)/(mg/kg); accumulation or changes in TK parameters after repeated dosing ([3]; rats, once-weekly dosing for 3 weeks): no accumulation or changes in TK parameters were evident; Adverse reaction: abdominal pain ([4]; 294 patients, 0.025 mg/kg IV): 2.7%; Adverse reaction: chest discomfort ([4]; 294 patients, 0.025 mg/kg IV): 1%; Adverse reaction: dyspepsia ([4]; 294 patients, 0.025 mg/kg IV): 1%; Adverse reaction: flushing ([4]; 294 patients, 0.025 mg/kg IV): 1.7%; Adverse reaction: hypersensitivity ([4]; 294 patients, 0.025 mg/kg IV): 1%; Adverse reaction: nausea ([4]; 294 patients, 0.025 mg/kg IV): 15%; Adverse reaction: pruritus ([4]; 294 patients, 0.025 mg/kg IV): 1%; Adverse reaction: vomiting ([4]; 294 patients, 0.025 mg/kg IV): 5.8%; patients with adverse reactions during the administration ([4]; 294 patients, 0.025 mg/kg IV): 2.4%; time of occurrence of reactions after start of infusion ([4]; typically): ≤ 15 min; partitioning into red blood cells [5]: No notable partitioning; Estimated systemic exposure relative to human exposure at 0.025 mg/kg (AUC comparison) ([6]; rabbit): 570 times; maternal toxicity and embryo-fetal development toxicity ([6]; rabbits, 0.3, 1, 3 mg/kg/day IV): No significant drug-related maternal toxicity and embryo-fetal development toxicity; No-Observed-Adverse-Effect-Level ([6]; rabbits, IV, GD7 to GD20): 3 mg/kg/day; mean (±SD) percentage of plasma protein bound (plasma protein): 93.7±1.5%; fraction unbound at 5 μM [7]: 0.063
